Values quoted from earlier work, collected in patent US20250134883A1, “NOVEL COMPOSITIONS” (TULEX PHARMACEUTICALS INC., priority 2022, published 2025).

Conditions: high dose naltrexone (0.5, 1.0 and 2.0 mg/kg)

## O=C1CC[C@@]2(O)[C@H]3Cc4ccc(O)c5c4[C@@]2(CCN3CC2CC2)[C@H]1O5 [naltrexone, Naltrexone]
  effect on autistic behavior and gaze aversion: reverse autistic behavior and gaze aversion
